Literature values as cited in patent EP0279688B1, “Methods and compositions for the use of HIV env polypeptides and antibodies thereto” (GENENTECH, INC., priority 1987, dated 1988).

Test system: viral replication
Conditions: Mitsuya and Broder, 1985

## Cc1cn([C@H]2C[C@H](N=[N+]=[N-])[C@@H](CO)O2)c(=O)[nH]c1=O [AZT]
  concentrations inhibiting viral replication: 50-500 µm

## Nc1ccn([C@H]2CC[C@@H](CO)O2)c(=O)n1 [DDC]
  concentrations inhibiting viral replication: 50-500 µm
